Experimental data reported in patent publication US20250282734A1 (Bayer Aktiengesellschaft, priority 2021, published 2025).

Assays:
[1] = Hygroscopy, dynamic vapour sorption (DVS) isotherms (Example 15); assay type: physicochemical
Protocol: Water sorption isotherms were determined using a DVS Resolution gravimetric sorption analyzer (London, UK), or a DVS Intrinsic instrument (Surface measurement Systems). The sample was dried for 1000 minutes at 0% relative humidity (R.H.). Afterwards the dry weight was recorded. […] The equilibrium criterion for each relative humidity set point was 0.002% per minute relative mass change as a function of time.

[2] = Solubility of cholinate vs free acid and other salts, shake-flask method (Example 14); assay type: physicochemical
Protocol: (§1) Preparation of FaSSIF (Fasted State Simulated Intestinal Fluid) blank solution: 4.2 g NaOH, 44.7 g NaH2PO4*2 H2O, and 61.86 g NaCl were dissolved in approximately 9.5 L demineralized water. Then, the pH of this solution was adjusted to 6.50+/−0.05 using HCl or NaOH, respectively. In the last step, the final volume was adjusted to 10.0 L by the addition of demineralized water.
Preparation of the final FaSSIF solution: 4.48 g SIF (Simulated Intestinal Fluids) powder (provider: biorelevant.com, Product code: FFF01 (May 2022)) were dissolved in approximately 500 mL FaSSIF blank solution, then the final volume was adjusted to 2.0 L by the addition of FaSSIF blank solution. After 2 hours, the solution was considered to be ready to use and was used within 48 hours.
as §1, with “FeSSIF (Fed” for “FaSSIF (Fasted”, “40.4” for “4.2”, “118.74” for “44.7”, “NaCl,” for “NaH2PO4*2 H2O,”, “82.4 mL glacial acetic acid” for “61.86 g NaCl”, “5.00+/−0.05” for “6.50+/−0.05”
Preparation of the final FeSSIF solution: 22.4 g SIF powder (provider: biorelevant.com, Product code: FFF01 (May 2022)) were dissolved in approximately 500 mL FeSSIF blank solution, then the final volume was adjusted to 2.0 L by the addition of FeSSIF blank solution. The solution was considered to be ready to use immediately after manufacturing and was used within 48 hours.

Structure (SMILES) | Change in mass [%], Desorption ([1]; 0% Relative humidity) [%] | Change in mass [%], Sorption ([1]; 0% Relative humidity) [%] | Change in mass [%], Desorption ([1]; 10% Relative humidity) [%] | Change in mass [%], Sorption ([1]; 10% Relative humidity) [%] | Change in mass [%], Desorption ([1]; 20% Relative humidity) [%] | Change in mass [%], Sorption ([1]; 20% Relative humidity) [%] | Change in mass [%], Desorption ([1]; 30% Relative humidity) [%] | Change in mass [%], Sorption ([1]; 30% Relative humidity) [%] | Change in mass [%], Desorption ([1]; 40% Relative humidity) [%] | Change in mass [%], Sorption ([1]; 40% Relative humidity) [%] | Change in mass [%], Desorption ([1]; 50% Relative humidity) [%] | Change in mass [%], Sorption ([1]; 50% Relative humidity) [%] | Change in mass [%], Desorption ([1]; 60% Relative humidity) [%] | Change in mass [%], Sorption ([1]; 60% Relative humidity) [%] | Change in mass [%], Desorption ([1]; 70% Relative humidity) [%] | Change in mass [%], Sorption ([1]; 70% Relative humidity) [%] | Change in mass [%], Desorption ([1]; 80% Relative humidity) [%] | Change in mass [%], Sorption ([1]; 80% Relative humidity) [%] | Change in mass [%], Desorption ([1]; 90% Relative humidity) [%] | Change in mass [%], Sorption ([1]; 90% Relative humidity) [%] | also measured
N=C(N)NCCC[C@H](N)C(=O)O.O=C(O)c1cc(NC(=O)C2(c3ccc(C(F)(F)F)cc3F)CC2)ccc1-c1cnn(C2CCC2)c1 [Arginine Salt, Arginine salt of 2-(1-cyclobutyl-1H-pyrazol-4-yl)-5-[({1-[2-fluoro-4-(trifluoromethyl)phenyl]cyclopropyl}carbonyl)amino]benzoate] | 31.74 | 0.00 | 20.17 | 1.39 | 12.15 | 2.13 | 10.78 | 2.98 | 10.09 | 4.25 | 9.59 | 5.72 | 9.10 | 7.20 | 6.12 | 9.40 | 4.54 | 13.25 | 2.87 | 20.10 | Change in mass [%], Desorption ([1]; 95% Relative humidity): 1.60%; Change in mass [%], Sorption ([1]; 95% Relative humidity): 31.74%
O=C([O-])c1cc(NC(=O)C2(c3ccc(C(F)(F)F)cc3F)CC2)ccc1-c1cnn(C2CCC2)c1.[K+] [Potassium salt, Potassium 2-(1-cyclobutyl-1H-pyrazol-4-yl)-5-[({1-[2-fluoro-4-(trifluoromethyl)phenyl]cyclopropyl}carbonyl)amino]benzoate] | 67.05 | 1.84 | 36.40 | 3.33 | 21.86 | 4.12 | 15.18 | 5.53 | 11.85 | 8.59 | 9.24 | 11.39 | 6.66 | 14.10 | 4.31 | 17.79 | 2.92 | 24.21 | 1.40 | 37.54 | solubility ([2]; Buffer pH 4.5, 25° C.): 5 mgfree acid/L; solubility ([2]; Buffer pH 7, 25° C.): 684 mgfree acid/L; solubility ([2]; Buffer pH 8, 25° C.): >11594 mgfree acid/L; solubility ([2]; FaSSIF (37° C.) (Fasted State Simulated Intestinal Fluid)): 781 mgfree acid/L; solubility ([2]; FeSSIF (37° C.) (Fed State Simulated Intestinal Fluid)): 24 mgfree acid/L; solubility ([2]; Water, 25° C.): 6425 mgfree acid/L; Change in mass [%], Desorption ([1]; 95% Relative humidity): 0.00%; Change in mass [%], Sorption ([1]; 95% Relative humidity): 67.05%; DVS Dm @ 30% R.H. (Sorption) ([1]; summarized results, 30% R.H.): 5.5%; DVS Dm @ 50% R.H. (Sorption) ([1]; summarized results, 50% R.H.): 11.4%; DVS Dm @ 80% R.H. (Sorption) ([1]; summarized results, 80% R.H.): 24.2%
